Here are results for eleven molecules from article PMC11343458, “Extracellular proteolysis of tandemly duplicated pheromone propeptides affords additional complexity to bacterial quorum sensing” (PLOS Biology, 2024).

Like-named read-outs stand apart in the source and are kept apart here. No end group written: not given here.

Test [1] deals with extracellular proteases in supernatants of B. subtilis 168, WB800 and individual protease mutants. The experiment in a line: Peptide maturation assay with B. subtilis supernatants, read by Rap^105 thermal shift. The test is classed as biochemical, Bacillus subtilis. To be noted: 100 μm peptide, 1 h room temperature; 8 single protease mutants. The method, then: Overnight cultures of either B. subtilis strains 168, WB800, Δmpr, Δbpr, ΔaprE, Δepr, ΔwprA, Δvpr, ΔnprB, ΔnprE in GM1 media were diluted 1:20 into GM1 media and incubated at 37°C at 250 rpm. After 2 h, the OD600 were measured and adjusted to 0.5 with GM1 media, and 1 ml of bacterial cultures were centrifuged at 8,000 g for 2 min at room temperature and the supernatants were filtered using 0,2 μm nitrocellulose filters; 1 μl of 10 mM synthetic version of the mature pheromones (RRGHTA, RRGHTAS, SRGHTS, RGHTS, ERPVGT, Imat1^3T, Imat2^3T, Imat1^105, Imat2^105, and Imat3^105) were added to 99 μl of supernatant obtaining a final concentration of 100 μm and incubated for 1 h at room temperature. After incubation, reaction was stopped by incubation at 95°C for 5 min and sample was kept and used in Thermal Shift Assays (see before). In the kinetic assays, samples were inactivated at different times by incubation at 95°C for 5 min. Experiments were validated by experimental triplicates of 3 biological replicates.
(§1) The thermal shift assay was conducted in a CFX Opus Real-Time PCR system (Biorad). Samples of 20 μl containing 20× Sypro Orange (Sigma-Aldrich) and 50 μm of protein in a 20 mM Tris (pH 8) and 250 mM NaCl buffer or filtered supernatant in peptide maturation assays (see below) were loaded in 96-well PCR plates. In the cases where peptide interaction was analyzed, synthetic peptides at a final concentration of 100 μm were added to the assays. Samples were heated from 20 to 85°C in steps of 1 degree. Fluorescent intensity was plotted versus temperature and integrated with either CFX Opus Real-Time PCR automate model or GraphPad Prism software using a Boltzmann model to calculate melting temperatures.

For test [2], the system named is Rap^105. The experiment in a line: Thermal shift assay of Rap^105 with synthetic peptides. The class given is binding, phage phi105. To be noted: 100 μm peptide, without supernatant incubation. The method, then: as §1
Test [3] concerns Rap^3T (PsrfA-3xYFP competence reporter). Put plainly: Competence reporter assay (PsrfA-3xYFP) in strain overexpressing Rap^3T. The class given is cell-based, Bacillus subtilis. The conditions noted are these: strain 9834 hsRap(phi3T) Psrf-YFP, 1mM IPTG, 4hrs in MC, peptides added after 1 hr; for YFP, Mean: mean of 3 repeats. The source says: (§2) Bacillus strains AES9822 (SacA::PsrfA-3xYFP Cm), AES9824 (SacA::PspoIIG-3xYFP Cm), AES9834 (sacA::Psrf-3xYFP cm amyE::hsRap^3T spec), and AES9836 ([…] cm amyE::hsRap^3T spec) were constructed by natural transformation of the pAEC1003, pAEC1103, and pAEC2836 (see next section) plasmids into a PY79;xpf background Bacillus subtilis strain.
For competence experiments, the expression levels of the srf promoter reporter were determinate in a liquid culture generated from a single colony that was inoculated into MC competence media. The strains were grown at 37° with shaking at 220 RPM, with or without addition of 1 mM IPTG. […]

Test [4] has as its system Rap^3T (PspoIIG-3xYFP sporulation reporter). Put plainly: Sporulation assay (PspoIIG-3xYFP reporter) in strain overexpressing Rap^3T. The test is classed as cell-based, Bacillus subtilis. The conditions noted are these: strain 9836 hsRap(phi3T) PspoIIG-YFP, 1mM IPTG, 6 hrs in DSM, peptides added after 4.5hrs; for Mean %ON: mean of 3 repeats.
From the text: as §2
For sporulation experiments, the expression levels of spoIIG promoter reporter were determinate in a liquid culture from an overnight starter in LB were diluted 1:100 into Schaeffer’s sporulation medium (DSM). The strains were grown at 37° with shaking at 220 RPM, with or without addition of 1 mM IPTG. After 4.5 h of growth, peptides were added at a concentration of 10 μm. Following an additional 1.5 h of growth, YFP fluorescence was measured using a Beckman Coulter cytoflex flow cytometer.

The target of test [5] is Rap^3T. Put plainly: Microscale thermophoresis (MST) of peptide binding to Rap^3T. More on the design: species or system Bacillus phage phi3T. The method, then:
Rap^3T was fluorescently labeled with NT-647 amine reactive dye from the Monolith NT Protein Labeling kit RED-NHS (NanoTemper Technologies) according to the manufacturer’s instructions. Briefly, 100 μm solution of the protein was mixed with 3× dye solution, incubated 30 min in dark, and then purified by gravity in a 5 ml size exclusion column equilibrated with dialysis buffer (20 mM Tris-HCl (pH 8), 250 mM NaCl) supplemented with 0.1% pluronic and 5% glycerol to remove free dye. Rap^105 was fluorescently labeled using His-Tag Labeling Kit RED-tris-NTA 2nd Generation. Briefly, 500 nM of protein was mixed with 5 μm dye in PBS supplemented with 0,02% of tween incubated in dark at room temperature for 30 min and centrifuged at 10,000 g for 10 min at 4°C, transferred to a fresh tube, and used in the assays immediately. Labeled proteins were used at a final optimized concentration of 20 nM in the case of Rap^3T and 250 nM in the case of Rap^105. For the measurements of EC50, a 16-point 2-fold serial dilution (ranged from 2 to 3 × 10^−5 μm) of the peptides were prepared in presence of the corresponding labeled Rap protein. After 15-min incubation at room temperature, samples were filled into standard Capillaries (K005, NanoTemper Technologies) and MST measurements were performed on a Monolith NT.115 (NanoTemper Technologies) in RED channel using 60% to 75% of LED excitation power and medium or high MST power for Rap^3T or Rap^105, respectively. […] Data analyses were performed with M.O. Affinity Analysis software (NanoTermper Technologies) applying cooperative (Hill coefficient) and non-cooperative (Kd model) models, with the first one yielding better fitting values.
A general note: MST reads how a fluorescent partner responds to local heating, with and without ligand.

Test [6] deals with Rap^3T (Bacillus phage phi3T). The experiment in a line: MST; Rap^3T labelled with NT-647 (RED-NHS) at 20 nM; peptides in a 16-point 2-fold dilution from 2 to 3 x 10^-5 μm; 20 mM Tris-HCl (pH 8), 250 mM NaCl, 0.1% pluronic, 5% glycerol; 15 min at room temperature; Hill model.
Test [7] addresses Rap^3T (Bacillus phage phi3T). The experiment in a line: thermal shift assay; Sypro Orange, 50 μm protein, 100 μm synthetic peptide, 20 mM Tris (pH 8), 250 mM NaCl (or filtered supernatant in the maturation assays), heated from 20 to 85°C.

“ERPVGTLKLA [Imat1^105, immature synthetic peptide […]]”: in test [1], the “maturation by supernatants of individual protease mutants of B. subtilis 168 (Rap^105 thermal shift)” value (“maturation … (Rap^105 thermal shift)” for short) is “only for ΔwprA mutants”. Also, in test [2], the “stabilization of Rap^105 in thermal shift assay” value is given as “minimal stabilization”.
Regarding “LKLAERPVGT [Imat2^105, immature synthetic peptide […]]”, the “maturation … (Rap^105 thermal shift)” value in test [1] is recorded as “maturated for all the supernatants”. In test [2], the “stabilization of Rap^105 in thermal shift assay” value was “destabilization”.
As for RRGHTASIGFTDGHSYDIA, in test [3], the “YFP, Mean” value is listed as 8810.67; the “YFP, repeat I” value is given as 5838; the “YFP, repeat II” value is 10641; the “YFP, repeat III” value turned out to be 9953. Moreover, in test [4], the “Mean %ON” value amounted to 42.9%; the “%ON (YFP), repeat I” value was found to be 59.6%; the “YFP, repeat I” value was found to be 5294; the “% ON (YFP), repeat II” value is given as 39.8%. For the same molecule, in test [4], the “YFP, repeat II” value was determined as 2641; the “% ON (YFP), repeat III” value is recorded as 29.3%; the “YFP, repeat III” value was found to be 2055.
As a reminder, the EC50 is the concentration that produces a half-maximal response. Take RRGHTASIGFTDGHSYDIA [Long1]: the EC50 in test [5] (MST, Hill model, target 2e-8, MST-Power Medium, Nano - RED, 25.0°C, replicate 1 (first merge-set, c1), read-out: EC50 (Hill fit)) is 133 nM; in test [5] (MST, Hill model, target 2e-8, MST-Power Medium, Nano - RED, 25.0°C, replicate 2 (second merge-set, c4), read-out: EC50 (Hill fit)), 134 nM; in test [5] (MST, Hill model, target 2e-8, MST-Power Medium, Nano - RED, 25.0°C, replicate 3 (third merge-set, c7), read-out: EC50 (Hill fit)), 186 nM.
For the molecule SIGFTDGHSYDIASRGHTS, in test [3], the “YFP, Mean” value is recorded as 8018.67; the “YFP, repeat I” value came to 5205; the “YFP, repeat II” value came out at 10226; the “YFP, repeat III” value is 8625. In test [4], the “Mean %ON” value came to 37.1%; the “%ON (YFP), repeat I” value is recorded as 51.1%; the “YFP, repeat I” value turned out to be 4889; the “% ON (YFP), repeat II” value came out at 30.7%. In addition, in test [4], the “YFP, repeat II” value is reported as 2305; the “% ON (YFP), repeat III” value is 29.5%; the “YFP, repeat III” value is given as 2121.
SIGFTDGHSYDIASRGHTS [Long2]: the EC50 in test [5] (MO.Affinity export, one merged set, target 2e-8, On Time evaluation, hot region 4-5, excitation power 10, confidence limits 0 and #NUM! (no real fit), read-out: EC50 (Hill fit), merged set) amounted to 19800 nM.
For the molecule “SSDVKITERPVGT [Imat0^105, immature synthetic peptide […]]”, the “maturation … (Rap^105 thermal shift)” value in test [1] was “reduced or null maturation activity in ΔnprE, Δbpr, and ΔwprA mutants”. Further, in test [2], the “stabilization of Rap^105 in thermal shift assay” value is listed as “destabilization”.
RRGHTA showed an EC50 in test [6] of 5.28 nM. Moreover, in test [7], the dTm is 75 °C and the stabilization of the denaturation temperature was above 20 °C.
With RRGHTAS, the EC50 in test [6] came out at 6.7 nM. The stabilization of the denaturation temperature in test [7] was above 20 °C.
The matching figures for SRGHTS: 20.8 nM and above 20 °C.
The matching figures for RGHTS: 69.8 nM and above 20 °C.
